Laboratory results from PMC11247503 (Journal of Medicinal Chemistry, 2024).
Structures can show the parent of a compound that is named as a salt.

target: T1, mouse Spns2 (Mus musculus, UniProt Q91VM4); test: HeLa cell S1P release assay (Spns2 inhibition); type: cell-based; conditions: 1 μM inhibitor; HeLa cells; S1P in media by LC-MS/MS; 1 µM
T1 construct: expressed in transfected cells; host or cells: HeLa cells (G418-resistant pools)
T1 sequence (Q91VM4 1-549): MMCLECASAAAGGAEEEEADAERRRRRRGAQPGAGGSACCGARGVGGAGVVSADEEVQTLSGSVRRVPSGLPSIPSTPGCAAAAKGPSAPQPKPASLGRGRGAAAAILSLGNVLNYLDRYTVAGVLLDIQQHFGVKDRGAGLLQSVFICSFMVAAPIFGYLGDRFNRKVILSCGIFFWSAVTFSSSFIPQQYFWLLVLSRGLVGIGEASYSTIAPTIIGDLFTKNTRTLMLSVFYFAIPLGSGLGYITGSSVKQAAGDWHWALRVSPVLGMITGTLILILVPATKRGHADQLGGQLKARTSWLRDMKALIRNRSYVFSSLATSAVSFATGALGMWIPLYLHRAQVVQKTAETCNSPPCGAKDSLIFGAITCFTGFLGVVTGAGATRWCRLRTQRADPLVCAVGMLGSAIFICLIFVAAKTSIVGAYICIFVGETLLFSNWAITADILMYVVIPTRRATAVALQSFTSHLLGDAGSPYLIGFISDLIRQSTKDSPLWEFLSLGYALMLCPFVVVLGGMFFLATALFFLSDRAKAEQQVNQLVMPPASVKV
Protocol: With a library of analogs of SLB1122168 containing phenylurea, phenylcarbamate, and benzamide as bioisostere of the benzoxazole, we investigated their potential in inhibiting S1P transport using a HeLa cell assay.[36]−[38],[43] Briefly, in this assay, Spns2 is overexpressed whereas the S1P-degrading enzymes (lyase or phosphatases) were blocked with inhibitors.[44],[45] Inhibition of S1P transport is determined by measuring the amount of S1P in the buffer using LC-MS.
This assay was conducted as reported by Kharel et al.[43] Briefly, compounds were assessed in a HeLa cell assay at a 1 μM test concentration, unless noted otherwise. HeLa cells were transfected with a pcDNA3.1 plasmid encoding mouse Spns2, and pools of cells resistant to G418 were selected. S1P catabolic pathways were suppressed by the addition of 4-deoxypyridoxine (1 mM), NaF (2 mM), and Na3VO4 (0.2 mM). After growing cells to near confluence on 12-well tissue culture dishes, growth media was removed, inhibitors were introduced in release media (serum free medium containing 0.2% fatty acid free BSA), and the cells were incubated for 16–18 h at 37 °C. The BSA with bound S1P was concentrated from the release media by TFA-driven precipitation after addition of the d7-S1P internal standard, the S1P extracted from the protein pellet, and quantified by LC-MS/MS. Lower levels of S1P release into the media indicated greater degrees of Spns2 inhibition. Inhibition is reported as the percent decrease in S1P release relative to the control where no inhibitor was introduced.

Row | Compound | %Inhib. (Spns2 inhibition, percent decrease in S1P secretion relative to control)
1 | CCCCCCCCCCc1ccc(C(=O)N2CCN[C@@H](C)C2)cc1.Cl [(S)-4i, (S)-(4-Decylphenyl)(3-methylpiperazin-1-yl)methanone Hydrochloride] | 44 ± 1%

same assay, conditions: 1 μM inhibitor; HeLa cells; S1P in media by LC-MS/MS; listed as 4i, 1 µM

Row | Compound | %Inhib. (Spns2 inhibition, percent decrease in S1P secretion relative to control)
2 | CCCCCCCCCCc1ccc(C(=O)N2CCN[C@@H](C)C2)cc1.Cl [(S)-4i, (S)-(4-Decylphenyl)(3-methylpiperazin-1-yl)methanone Hydrochloride] | 68%

same assay, conditions: HeLa, 0.3 μM inhibitor (Figure 5); HeLa cells; read-out: % Inhibition, tail homologation study

Row | Compound | inhibition at 0.3 µM
3 | CCCCCCc1ccc(NC(=O)N2CCNCC2)cc1 [20a, N-(4-Hexylphenyl)piperazine-1-carboxamide Hydrogen Chloride] | 19 ± 2%
4 | CCCCCCCc1ccc(NC(=O)N2CCNCC2)cc1 [20b, N-(4-Heptylphenyl)piperazine-1-carboxamide Hydrogen Chloride] | 28 ± 5%
5 | CCCCCCCCCCCc1ccc(NC(=O)N2CCNCC2)cc1 [20e, N-(4-Undecylphenyl)piperazine-1-carboxamide Hydrogen Chloride] | 76 ± 5%
6 | CCCCCCCCCCCCc1ccc(NC(=O)N2CCNCC2)cc1 [20f, N-(4-Dodecylphenyl)piperazine-1-carboxamide Hydrogen Chloride] | 57 ± 1%

same assay, conditions: HeLa, 1 μM inhibitor; HeLa cells; S1P in media by LC-MS/MS; read-out: %Inhib. (Spns2 inhibition, percent decrease in S1P secretion relative to control)

Row | Compound | inhibition at 1 µM
7 | CCCCCCCCCCc1ccc(NC(=O)O[C@H]2CCCNC2)cc1 [(S)-8e, (S)-Piperidin-3-yl (4-Decylphenyl)carbamate Hydrochloride] | 48 ± 2%
8 | CCCCCCCCCCc1ccc(C(=O)NC2CCNCC2)cc1 [4g, 4-Decyl-N-(piperidin-4-yl)benzamide Hydrochloride] | 24 ± 2%
9 | CCCCCCCCCCc1ccc(NC(=O)O[C@@H]2CCCNC2)cc1 [(R)-8d, (R)-Piperidin-3-yl (4-Decylphenyl)carbamate Hydrochloride] | 45 ± 3%
10 | CCCCCCCCCCc1ccc(NC(=O)N[C@H]2CCNC2)cc1 [(S)-11d, (S)-1-(4-Decylphenyl)-3-(pyrrolidin-3-yl)urea Hydrochloride] | 44 ± 2%
11 | CCCCCCCCCCc1ccc(NC(=O)N[C@H]2CCCNC2)cc1 [(S)-11f, (S)-1-(4-Decylphenyl)-3-(piperidin-3-yl)urea Hydrochloride] | 78 ± 4%
12 | CCCCCCCCCCc1ccc(C(=S)N[C@@H]2CCNC2)cc1 [(R)-15b, (R)-4-Decyl-N-(pyrrolidin-3-yl)benzothioamide Hydrochloride] | 33 ± 3%
13 | CCCCCCCCCCc1ccc(NC(=O)O[C@H]2CCNC2)cc1 [(S)-8c, (S)-Pyrrolidin-3-yl (4-Decylphenyl)carbamate Hydrochloride] | 46%
14 | CCCCCCCCCCc1ccc(C(=O)N(C)[C@@H]2CCNC2)cc1 [(R)-13b, (R)-4-Decyl-N-methyl-N-(pyrrolidin-3-yl)benzamide Hydrochloride] | 21 ± 1%
15 | CCCCCCCCCCc1ccc(NC(=O)OC2CCNCC2)cc1 [8f, Piperidin-4-yl (4-Decylphenyl)carbamate Hydrochloride] | 51%
16 | CCCCCCCCCCc1ccc(NC(=O)N2CCN[C@H](C)C2)cc1 [(R)-11l, (R)-N-(4-Decylphenyl)-3-methylpiperazine-1-carboxamide Hydrochloride] | ≥ 80%
17 | CCCCCCCCCCc1ccc(N(C)C(=O)N2CC3CCC(C2)N3)cc1 [17c, N-(4-Decylphenyl)-N-methyl-3,8-diazabicyclo[3.2.1]octane-3-carboxamide Hydrochloride] | 18 ± 1%
18 | CCCCCCCCCCc1ccc(C(=O)N2CCNCC2C)cc1 (racemic) [(±)-4j, (4-Decylphenyl)(2-methylpiperazin-1-yl)methanone Hydrochloride] | 61 ± 2%
19 | CCCCCCCCCCc1ccc(NC(=O)N2CC3CCC(C2)N3)cc1 [11k, N-(4-Decylphenyl)-3,8-diazabicyclo[3.2.1]octane-3-carboxamide Hydrochloride] | 77%
20 | CCCCCCCCCCc1ccc(C(=O)N2CC3CC2CN3)cc1 (stereo not shown) [4l, (2,5-Diazabicyclo[2.2.1]heptan-2-yl)(4-decylphenyl)methanone Hydrochloride] | 25 ± 2%
21 | CCCCCCCCCCc1ccc(C(=O)N(C)[C@@H]2CCCNC2)cc1 [(R)-13c, (R)-4-Decyl-N-Methyl-N-(piperidin-3-yl)benzamide Hydrochloride] | 51 ± 2%

More lines, now with the values ahead:

Row | inhibition at 1 µM | Compound
22 | 72 ± 1% | CCCCCCCCCCc1ccc(NC(=O)N2CCCNCC2)cc1 [11m, N-(4-Decylphenyl)-1,4-diazepane-1-carboxamide Hydrochloride]
23 | 34 ± 9% | CCCCCCCCCCc1ccc(NC(=O)NC2CCNCC2)cc1 [11h, 1-(4-Decylphenyl)-3-(piperidin-4-yl)urea Hydrochloride]
24 | 53% | CCCCCCCCCCc1ccc(NC(=O)NCCCN)cc1 [11a, 1-(3-Aminopropyl)-3-(4-decylphenyl)urea Hydrochloride]
25 | 39 ± 4% | CCCCCCCCCCc1ccc(C(=O)N(C)CCCN)cc1 [13a, N-(3-Aminopropyl)-4-decyl-N-methylbenzamide Hydrochloride]
26 | 23 ± 1% | CCCCCCCCCCc1ccc(C(=S)NCCCN)cc1 [15a, N-(3-Aminopropyl)-4-decylbenzothioamide Hydrochloride]
27 | 5 ± 3% | CCCCCCCCCCc1ccc(NC(=O)N2CC[N+](C)(C)CC2)cc1 [18b, 4-((4-Decylphenyl)carbamoyl)-1,1-dimethylpiperazin-1-ium Iodide]
28 | 59 ± 2% | CCCCCCCCCCc1ccc(NC(=O)N2CCC(N)CC2)cc1 [11g, 4-Amino-N-(4-decylphenyl)piperidine-1-carboxamide Hydrochloride]
